Earlier results, collected in US4801444A, “Medicinal preparation for individual prevention of venereal diseases and treatment of urogenital trichomoniasis” (Poltavsky Meditsinsky Stomatologichesky Institut, priority 1988, dated 1989).
Read-outs that look alike come from different tables or passages of the source.

Assays:
[1] = system: trichomonads; details: imidazole medicines, clinical use
[2] = system: urogenital trichomoniasis
[3] = 0.05-0.1 percent solution, clinical application
[4] = system: venereal diseases; details: 0.05-0.1 percent solution
[5] = system: venereal diseases; details: 0.05-0.1 percent solution; remark: listed apart in the source

## CCS(=O)(=O)CCn1c([N+](=O)[O-])cnc1C [Tinidazole]
[1]
  relapsing of a specific process: up to 8.4% of all cases

## Cc1ncc([N+](=O)[O-])n1CCO [Metronidazole]
[1]
  relapsing of a specific process: up to 8.4% of all cases

## CC(=O)Nc1cc([As](=O)(O)O)ccc1O [Acetarsol]
[2]; topical (external)
  efficacy in topical treatment of urogenital trichomoniasis: insufficiently efficacious

## OB(O)O [boric acid]
[2]; in vivo
  efficacy in topical treatment of urogenital trichomoniasis: insufficiently efficacious

## [H]/N=C(\N/C(=N/[H])NCCCCCCNC(=N)NC(=N)Nc1ccc(Cl)cc1)Nc1ccc(Cl)cc1 [Chlorhexidine]
[3]
  effect upon skin and genital mucosa in man: irritating and withering effect upon the skin and genital mucosa
[4]
  bactericidal activity in vitro: adequate bactericidal activity
[5]
  bactericidal activity in tests on animals: adequate bactericidal activity

## O=C(N[C@H](CO)[C@H](O)c1ccc([N+](=O)[O-])cc1)C(Cl)Cl [laevomycetin]
[2]; topical (external)
  efficacy in topical treatment of urogenital trichomoniasis: insufficiently efficacious

## O=S(=O)([O-])[O-].[Zn+2] [zinc sulphate]
[2]; topical (external)
  efficacy in topical treatment of urogenital trichomoniasis: insufficiently efficacious

## O=S(=O)([O-])[O-].[Cu+2] [copper sulphate]
[2]; topical (external)
  efficacy in topical treatment of urogenital trichomoniasis: insufficiently efficacious

## O=[N+]([O-])[O-].[Ag+] [lapis]
[2]; topical (external)
  efficacy in topical treatment of urogenital trichomoniasis: insufficiently efficacious
